Measured values reported in ChEMBL document CHEMBL5058649, “Data for DCP probe BAY 1816032” (2022).

How the values were obtained:
[1] = target: T1, Mitotic checkpoint serine/threonine-protein kinase BUB1 (Homo sapiens, UniProt O43683); assay: BUB1 biochemical assay (high ATP)
[2] = target: T2, 5-hydroxytryptamine receptor 1D (Homo sapiens, UniProt P28221); assay: GPCRScan assay: inhibition of 5-HT1D; set-up: radioligand conc. used [nm] 1.0 – 2.0, parental cells HEKT
[3] = target: D(2) dopamine receptor (Homo sapiens) (UniProt P14416); conditions: Compound concentration 10.0 uM
[4] = target: T3, Sigma non-opioid intracellular receptor 1 (Homo sapiens, UniProt Q99720); conditions: Compound concentration 10.0 uM
[5] = target: Mu-type opioid receptor (Homo sapiens) (UniProt P35372); conditions: Compound concentration 10.0 uM
[6] = target: T4, Sodium-dependent noradrenaline transporter (Homo sapiens, UniProt P23975); assay: GPCRScan assay: inhibition of NET; set-up: radioligand conc. used [nm] 1.3 – 5.0, parental cells stable HEK
[7] = target: T1, Mitotic checkpoint serine/threonine-protein kinase BUB1; assay: BUB1 biochemical assay (low ATP)
[8] = target: Beta-3 adrenergic receptor (Homo sapiens) (UniProt P13945); conditions: Compound concentration 10.0 uM
[9] = target: Histamine H2 receptor (Homo sapiens) (UniProt P25021); conditions: Compound concentration 10.0 uM
[10] = target: Alpha-1D adrenergic receptor (Homo sapiens) (UniProt P25100); conditions: Compound concentration 10.0 uM
[11] = target: D(1B) dopamine receptor (Homo sapiens) (UniProt P21918); conditions: Compound concentration 10.0 uM
[12] = target: D(3) dopamine receptor (Homo sapiens) (UniProt P35462); conditions: Compound concentration 10.0 uM
[13] = target: 5-hydroxytryptamine receptor 5A (Homo sapiens) (UniProt P47898); conditions: Compound concentration 10.0 uM
Rattus norvegicus = species: Rattus norvegicus; conditions: Compound concentration 10.0 uM
[14] = target: T2, 5-hydroxytryptamine receptor 1D; conditions: Compound concentration 10.0 uM
[15] = target: T4, Sodium-dependent noradrenaline transporter; conditions: Compound concentration 10.0 uM
[16] = target: Beta-1 adrenergic receptor (Homo sapiens) (UniProt P08588); conditions: Compound concentration 10.0 uM
[17] = target: Kappa-type opioid receptor (Homo sapiens) (UniProt P41145); conditions: Compound concentration 10.0 uM
[18] = target: Alpha-1B adrenergic receptor (Homo sapiens) (UniProt P35368); conditions: Compound concentration 10.0 uM
[19] = target: 5-hydroxytryptamine receptor 1A (Homo sapiens) (UniProt P08908); conditions: Compound concentration 10.0 uM
[20] = target: Alpha-1A adrenergic receptor (Homo sapiens) (UniProt P35348); conditions: Compound concentration 10.0 uM
[21] = target: Sodium-dependent serotonin transporter (Homo sapiens) (UniProt P31645); conditions: Compound concentration 10.0 uM
[22] = target: T5, Sodium-dependent dopamine transporter (Homo sapiens, UniProt Q01959); conditions: Compound concentration 10.0 uM
[23] = target: T6, Sigma intracellular receptor 2 (Homo sapiens, UniProt Q5BJF2); assay: GPCRScan assay: inhibition of Sigma 2; set-up: radioligand conc. used [nm] 5.0, parental cells HEKT
[24] = target: T7, Alpha-2A adrenergic receptor (Homo sapiens) (UniProt P08913); conditions: Compound concentration 10.0 uM
T7 sequence (whole entry): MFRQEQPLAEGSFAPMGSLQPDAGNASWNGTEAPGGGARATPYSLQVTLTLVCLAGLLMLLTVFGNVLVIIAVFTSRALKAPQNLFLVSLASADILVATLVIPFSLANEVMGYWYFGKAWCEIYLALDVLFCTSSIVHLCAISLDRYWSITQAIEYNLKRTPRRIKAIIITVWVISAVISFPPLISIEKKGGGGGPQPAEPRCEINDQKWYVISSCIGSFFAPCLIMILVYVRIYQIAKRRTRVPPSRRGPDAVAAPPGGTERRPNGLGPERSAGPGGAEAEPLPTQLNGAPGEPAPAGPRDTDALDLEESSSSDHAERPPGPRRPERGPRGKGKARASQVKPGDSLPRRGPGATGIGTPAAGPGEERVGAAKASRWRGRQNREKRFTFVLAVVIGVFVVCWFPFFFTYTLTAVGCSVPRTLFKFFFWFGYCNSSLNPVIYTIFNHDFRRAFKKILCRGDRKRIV

[25] = target: D(1A) dopamine receptor (Homo sapiens) (UniProt P21728); conditions: Compound concentration 10.0 uM
[26] = target: 5-hydroxytryptamine receptor 1E (Homo sapiens) (UniProt P28566); conditions: Compound concentration 10.0 uM
[27] = target: Histamine H4 receptor (Homo sapiens) (UniProt Q9H3N8); conditions: Compound concentration 10.0 uM
[28] = target: Alpha-2C adrenergic receptor (Homo sapiens) (UniProt P18825); conditions: Compound concentration 10.0 uM
[29] = target: 5-hydroxytryptamine receptor 3A (Homo sapiens) (UniProt P46098); conditions: Compound concentration 10.0 uM
[30] = target: 5-hydroxytryptamine receptor 1B (Homo sapiens) (UniProt P28222); conditions: Compound concentration 10.0 uM
[31] = target: 5-hydroxytryptamine receptor 6 (Homo sapiens, UniProt P50406); assay: GPCRScan assay: inhibition of 5-HT6; set-up: radioligand conc. used [nm] 2.0 – 4.0, parental cells stable HEK
[32] = target: 5-hydroxytryptamine receptor 2A (Homo sapiens) (UniProt P28223); conditions: Compound concentration 10.0 uM
[33] = target: T3, Sigma non-opioid intracellular receptor 1; assay: GPCRScan assay: inhibition of Sigma 1; set-up: radioligand conc. used [nm] 4.0 – 5.0, parental cells HEKT
[34] = target: 5-hydroxytryptamine receptor 2B (Homo sapiens) (UniProt P41595); conditions: Compound concentration 10.0 uM
[35] = target: T5, Sodium-dependent dopamine transporter; assay: GPCRScan assay: inhibition of DAT; set-up: radioligand conc. used [nm] 3.6 – 16.0, parental cells stable HEK
[36] = target: D(4) dopamine receptor (Homo sapiens) (UniProt P21917); conditions: Compound concentration 10.0 uM
[37] = target: T6, Sigma intracellular receptor 2; conditions: Compound concentration 10.0 uM
[38] = target: Alpha-2B adrenergic receptor (Homo sapiens) (UniProt P18089); conditions: Compound concentration 10.0 uM
[39] = target: Delta-type opioid receptor (Homo sapiens) (UniProt P41143); conditions: Compound concentration 10.0 uM
[40] = target: 5-hydroxytryptamine receptor 7 (Homo sapiens, UniProt P34969); conditions: Compound concentration 10.0 uM
[41] = target: Histamine H1 receptor (Homo sapiens) (UniProt P35367); conditions: Compound concentration 10.0 uM
[42] = target: Muscarinic acetylcholine receptor M4 (Homo sapiens) (UniProt P08173); conditions: Compound concentration 10.0 uM

T5 sequence (Q01959 whole entry): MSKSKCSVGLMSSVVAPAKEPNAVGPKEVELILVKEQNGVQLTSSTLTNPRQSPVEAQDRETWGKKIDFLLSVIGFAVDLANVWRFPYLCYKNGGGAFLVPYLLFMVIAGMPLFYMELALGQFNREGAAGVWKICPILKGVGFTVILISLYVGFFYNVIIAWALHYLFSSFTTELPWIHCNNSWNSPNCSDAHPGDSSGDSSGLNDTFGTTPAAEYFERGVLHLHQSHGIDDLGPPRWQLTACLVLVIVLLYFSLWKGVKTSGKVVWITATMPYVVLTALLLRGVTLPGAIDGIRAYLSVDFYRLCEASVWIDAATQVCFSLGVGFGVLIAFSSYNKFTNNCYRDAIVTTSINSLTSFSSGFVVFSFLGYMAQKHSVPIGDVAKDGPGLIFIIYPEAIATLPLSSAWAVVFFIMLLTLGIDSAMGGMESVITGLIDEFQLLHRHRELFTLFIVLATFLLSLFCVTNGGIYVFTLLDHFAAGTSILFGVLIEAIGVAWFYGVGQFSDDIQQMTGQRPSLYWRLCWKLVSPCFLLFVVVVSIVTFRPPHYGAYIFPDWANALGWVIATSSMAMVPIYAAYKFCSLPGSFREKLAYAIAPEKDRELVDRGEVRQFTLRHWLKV
T1 sequence (O43683 whole entry): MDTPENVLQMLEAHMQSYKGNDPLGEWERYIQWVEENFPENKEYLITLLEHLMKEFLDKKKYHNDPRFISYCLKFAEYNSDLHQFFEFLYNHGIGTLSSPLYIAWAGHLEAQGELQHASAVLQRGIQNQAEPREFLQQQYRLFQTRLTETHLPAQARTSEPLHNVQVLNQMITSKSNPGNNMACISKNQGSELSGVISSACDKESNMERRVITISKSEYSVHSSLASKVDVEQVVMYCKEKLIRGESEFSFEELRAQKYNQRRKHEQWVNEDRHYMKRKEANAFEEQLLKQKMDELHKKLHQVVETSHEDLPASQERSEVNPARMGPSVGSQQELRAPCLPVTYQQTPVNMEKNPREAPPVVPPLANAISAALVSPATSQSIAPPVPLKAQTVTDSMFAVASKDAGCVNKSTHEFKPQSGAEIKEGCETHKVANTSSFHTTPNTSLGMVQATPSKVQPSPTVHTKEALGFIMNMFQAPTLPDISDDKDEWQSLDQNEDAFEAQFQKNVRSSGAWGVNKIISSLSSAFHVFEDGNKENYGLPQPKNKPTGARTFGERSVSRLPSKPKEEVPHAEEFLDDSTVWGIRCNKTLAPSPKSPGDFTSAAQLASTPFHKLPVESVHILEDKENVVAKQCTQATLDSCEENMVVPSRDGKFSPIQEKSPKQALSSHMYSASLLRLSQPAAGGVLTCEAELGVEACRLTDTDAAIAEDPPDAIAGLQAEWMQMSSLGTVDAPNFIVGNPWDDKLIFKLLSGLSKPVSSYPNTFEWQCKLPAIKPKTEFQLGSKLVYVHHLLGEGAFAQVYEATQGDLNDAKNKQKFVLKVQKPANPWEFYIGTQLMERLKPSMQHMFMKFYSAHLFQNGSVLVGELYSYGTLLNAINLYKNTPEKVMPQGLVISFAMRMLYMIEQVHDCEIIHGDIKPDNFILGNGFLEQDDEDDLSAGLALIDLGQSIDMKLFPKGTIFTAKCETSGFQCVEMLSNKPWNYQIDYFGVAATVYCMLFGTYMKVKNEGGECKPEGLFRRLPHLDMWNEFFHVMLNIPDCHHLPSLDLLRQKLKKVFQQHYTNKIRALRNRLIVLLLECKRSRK
T2 sequence (P28221 whole entry): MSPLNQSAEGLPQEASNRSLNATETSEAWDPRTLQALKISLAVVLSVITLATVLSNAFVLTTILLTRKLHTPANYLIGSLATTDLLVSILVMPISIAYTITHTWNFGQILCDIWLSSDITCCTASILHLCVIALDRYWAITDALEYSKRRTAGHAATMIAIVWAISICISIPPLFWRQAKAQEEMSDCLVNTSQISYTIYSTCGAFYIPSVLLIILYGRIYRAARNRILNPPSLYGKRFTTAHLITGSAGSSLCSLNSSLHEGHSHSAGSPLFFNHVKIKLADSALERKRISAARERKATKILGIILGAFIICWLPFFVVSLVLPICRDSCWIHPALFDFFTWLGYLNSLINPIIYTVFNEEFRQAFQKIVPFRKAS
T4 sequence (P23975 whole entry): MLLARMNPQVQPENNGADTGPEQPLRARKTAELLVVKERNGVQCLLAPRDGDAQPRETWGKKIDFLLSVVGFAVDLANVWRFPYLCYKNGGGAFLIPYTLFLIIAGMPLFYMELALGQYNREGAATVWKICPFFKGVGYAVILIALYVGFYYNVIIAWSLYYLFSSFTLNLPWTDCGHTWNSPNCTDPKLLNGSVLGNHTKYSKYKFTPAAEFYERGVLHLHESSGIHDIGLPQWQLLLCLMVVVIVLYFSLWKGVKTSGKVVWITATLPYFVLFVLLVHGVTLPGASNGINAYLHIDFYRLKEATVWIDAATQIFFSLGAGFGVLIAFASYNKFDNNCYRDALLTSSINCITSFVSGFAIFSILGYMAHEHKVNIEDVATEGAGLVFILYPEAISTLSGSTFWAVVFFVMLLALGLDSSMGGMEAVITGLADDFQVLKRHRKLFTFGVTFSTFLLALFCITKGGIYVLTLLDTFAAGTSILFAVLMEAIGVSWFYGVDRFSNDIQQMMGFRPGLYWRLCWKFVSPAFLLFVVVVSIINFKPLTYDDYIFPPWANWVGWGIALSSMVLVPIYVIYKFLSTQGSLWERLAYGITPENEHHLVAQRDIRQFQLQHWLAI
T3 sequence (Q99720 whole entry): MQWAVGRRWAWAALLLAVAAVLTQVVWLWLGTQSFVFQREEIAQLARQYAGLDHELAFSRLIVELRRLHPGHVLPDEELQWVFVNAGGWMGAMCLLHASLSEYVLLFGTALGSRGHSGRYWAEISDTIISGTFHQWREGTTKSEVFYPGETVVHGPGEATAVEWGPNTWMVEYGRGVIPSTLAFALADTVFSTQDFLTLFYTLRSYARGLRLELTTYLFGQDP
T6 sequence (Q5BJF2 whole entry): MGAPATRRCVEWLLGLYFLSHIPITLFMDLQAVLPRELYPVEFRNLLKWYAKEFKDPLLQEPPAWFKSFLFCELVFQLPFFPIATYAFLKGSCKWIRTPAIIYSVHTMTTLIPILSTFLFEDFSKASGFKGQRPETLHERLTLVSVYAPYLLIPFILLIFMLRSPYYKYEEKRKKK
5-hydroxytryptamine receptor 6, sequence (P50406 whole entry): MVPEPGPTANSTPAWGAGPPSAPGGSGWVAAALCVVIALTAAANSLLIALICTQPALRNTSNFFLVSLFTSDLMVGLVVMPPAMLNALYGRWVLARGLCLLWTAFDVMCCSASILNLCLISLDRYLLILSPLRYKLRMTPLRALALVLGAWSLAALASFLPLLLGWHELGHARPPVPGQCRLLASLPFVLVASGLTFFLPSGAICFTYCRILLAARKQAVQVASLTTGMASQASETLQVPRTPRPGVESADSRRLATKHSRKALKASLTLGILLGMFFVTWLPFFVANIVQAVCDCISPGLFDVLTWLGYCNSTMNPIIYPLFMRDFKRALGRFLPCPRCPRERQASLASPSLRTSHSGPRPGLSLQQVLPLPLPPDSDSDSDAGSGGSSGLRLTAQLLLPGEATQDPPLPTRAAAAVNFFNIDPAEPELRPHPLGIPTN
5-hydroxytryptamine receptor 2A (Homo sapiens), sequence (P28223 whole entry): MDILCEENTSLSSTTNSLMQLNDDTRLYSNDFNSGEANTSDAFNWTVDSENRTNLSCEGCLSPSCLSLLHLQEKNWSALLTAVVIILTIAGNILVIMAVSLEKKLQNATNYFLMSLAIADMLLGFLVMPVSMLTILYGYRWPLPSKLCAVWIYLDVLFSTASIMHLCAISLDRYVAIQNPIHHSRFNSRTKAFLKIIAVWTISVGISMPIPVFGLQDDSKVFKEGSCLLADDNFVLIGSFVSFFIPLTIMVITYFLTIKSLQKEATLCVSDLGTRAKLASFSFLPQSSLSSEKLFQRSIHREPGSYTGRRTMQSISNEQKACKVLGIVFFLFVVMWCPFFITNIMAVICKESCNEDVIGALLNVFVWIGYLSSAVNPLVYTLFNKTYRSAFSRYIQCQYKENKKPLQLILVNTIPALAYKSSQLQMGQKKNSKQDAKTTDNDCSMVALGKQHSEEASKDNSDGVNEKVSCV
Histamine H2 receptor (Homo sapiens), sequence (P25021 whole entry): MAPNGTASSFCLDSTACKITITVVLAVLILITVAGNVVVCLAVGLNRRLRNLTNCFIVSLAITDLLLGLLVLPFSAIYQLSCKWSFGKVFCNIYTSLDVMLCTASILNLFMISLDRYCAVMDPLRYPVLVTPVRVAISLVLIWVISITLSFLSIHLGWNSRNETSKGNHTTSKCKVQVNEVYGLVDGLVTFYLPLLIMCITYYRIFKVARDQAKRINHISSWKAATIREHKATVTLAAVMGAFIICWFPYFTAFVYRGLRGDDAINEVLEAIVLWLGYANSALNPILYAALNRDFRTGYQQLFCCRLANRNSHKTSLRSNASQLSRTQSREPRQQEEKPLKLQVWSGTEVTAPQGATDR
Alpha-1B adrenergic receptor (Homo sapiens), sequence (P35368 whole entry): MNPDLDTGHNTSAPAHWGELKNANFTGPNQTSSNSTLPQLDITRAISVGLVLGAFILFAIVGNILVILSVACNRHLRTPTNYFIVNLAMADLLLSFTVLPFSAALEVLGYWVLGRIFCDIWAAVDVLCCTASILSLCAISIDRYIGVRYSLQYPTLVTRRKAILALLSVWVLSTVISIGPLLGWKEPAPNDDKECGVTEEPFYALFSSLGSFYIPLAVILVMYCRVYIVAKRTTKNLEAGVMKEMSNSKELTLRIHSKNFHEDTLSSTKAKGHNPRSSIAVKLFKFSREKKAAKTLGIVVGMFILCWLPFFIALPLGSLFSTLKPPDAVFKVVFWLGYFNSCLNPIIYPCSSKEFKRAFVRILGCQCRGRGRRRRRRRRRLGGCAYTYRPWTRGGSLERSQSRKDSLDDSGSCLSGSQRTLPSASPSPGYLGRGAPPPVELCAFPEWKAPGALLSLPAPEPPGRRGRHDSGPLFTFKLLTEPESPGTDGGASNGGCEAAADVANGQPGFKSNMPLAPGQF

COc1ccccc1Nc1nc(-c2nn(Cc3c(F)cc(OCCCO)cc3F)c3ccccc23)ncc1OC
> 10000 nM: Ki [31]
1620 nM: Ki ([35]; read-out: pKi (converted))
1340 nM: Ki [33]
2740 nM: Ki [6]
655 nM: Ki [23]
1630 nM: Ki ([35]; read-out: Ki)
< 5: pKi [31]
1700 nM (not active): IC50 [7]
8970 nM: Ki [2]
inactive: inhibition [3] 21.8% | inhibition [5] -9.7% | inhibition [8] 33.6% | inhibition [9] 28.7% | inhibition [10] 12.9% | inhibition [11] 26.8% | inhibition [12] 20% | inhibition [13] 3.77% | inhibition (Rattus norvegicus) 13.9% | inhibition [16] 1.17% | inhibition [17] 17.5% | inhibition [18] -4.46% | inhibition [19] 12.3% | inhibition [20] -6.1% | inhibition [21] 10.9% | inhibition [24] 28.9% | inhibition [25] 41.3% | inhibition [26] -3.71% | inhibition [27] 27.8% | inhibition [28] 12.9% | inhibition [29] -3.97% | inhibition [30] 33.8% | inhibition [32] 6.5% | inhibition [34] -3.83% | inhibition [36] 24.9% | inhibition [38] 27.6% | inhibition [39] -9.55% | inhibition [40] -3.39% | inhibition [41] 20.3% | inhibition [42] 9.26%
> 20000 nM (not active): IC50 [1]
active: inhibition [4] 52.2% | inhibition [14] 55.1% | inhibition [15] 58.7% | inhibition [22] 82.8% | inhibition [37] 69.2%
